# Tests used:
# [1] = target: T1, CrPAM (PHM activity) (Chlamydomonas reinhardtii, UniProt A0A0S2C767); assay: PHM activity assay in cell lysate; type: biochemical; conditions: mechanism-based PHM inhibitor; PBA added to lysate; vehicle ethanol
# T1 construct: gene PAM; native full-length bifunctional membrane PAM (110 kDa) in detergent cell lysate; PHM domain activity measured
# T1 sequence (A0A0S2C767 22-926): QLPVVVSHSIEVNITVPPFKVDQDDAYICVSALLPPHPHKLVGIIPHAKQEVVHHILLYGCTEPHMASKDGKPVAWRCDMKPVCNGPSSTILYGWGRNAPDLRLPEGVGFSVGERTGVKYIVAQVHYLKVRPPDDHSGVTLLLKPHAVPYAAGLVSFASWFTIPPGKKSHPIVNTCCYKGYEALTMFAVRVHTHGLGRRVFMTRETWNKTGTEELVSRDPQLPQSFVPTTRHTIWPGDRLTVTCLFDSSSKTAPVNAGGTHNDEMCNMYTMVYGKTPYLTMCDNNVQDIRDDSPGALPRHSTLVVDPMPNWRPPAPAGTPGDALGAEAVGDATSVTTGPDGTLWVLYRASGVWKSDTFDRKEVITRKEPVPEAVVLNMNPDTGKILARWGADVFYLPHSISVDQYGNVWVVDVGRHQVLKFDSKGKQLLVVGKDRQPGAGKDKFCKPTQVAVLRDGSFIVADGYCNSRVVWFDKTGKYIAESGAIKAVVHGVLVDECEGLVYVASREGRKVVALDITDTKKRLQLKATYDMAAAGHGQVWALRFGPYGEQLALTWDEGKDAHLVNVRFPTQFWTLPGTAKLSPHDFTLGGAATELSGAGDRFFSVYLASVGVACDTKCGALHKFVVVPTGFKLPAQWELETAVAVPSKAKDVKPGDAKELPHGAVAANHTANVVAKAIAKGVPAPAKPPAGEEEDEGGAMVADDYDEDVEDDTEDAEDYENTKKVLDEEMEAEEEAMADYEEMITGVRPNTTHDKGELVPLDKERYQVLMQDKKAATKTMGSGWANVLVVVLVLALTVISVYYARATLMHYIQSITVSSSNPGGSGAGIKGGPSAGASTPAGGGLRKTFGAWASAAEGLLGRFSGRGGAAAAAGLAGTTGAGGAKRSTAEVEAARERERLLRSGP
# [2] = target: T2, rat PAM (PHM activity) (Rattus norvegicus, UniProt P14925); assay: PHM activity assay in cell lysate; type: biochemical; conditions: mechanism-based PHM inhibitor; PBA added to lysate; vehicle ethanol
# T2 construct: rat PAM expressed in mouse corticotropes, cell lysate; PHM domain activity measured
# T2 sequence (P14925 36-976): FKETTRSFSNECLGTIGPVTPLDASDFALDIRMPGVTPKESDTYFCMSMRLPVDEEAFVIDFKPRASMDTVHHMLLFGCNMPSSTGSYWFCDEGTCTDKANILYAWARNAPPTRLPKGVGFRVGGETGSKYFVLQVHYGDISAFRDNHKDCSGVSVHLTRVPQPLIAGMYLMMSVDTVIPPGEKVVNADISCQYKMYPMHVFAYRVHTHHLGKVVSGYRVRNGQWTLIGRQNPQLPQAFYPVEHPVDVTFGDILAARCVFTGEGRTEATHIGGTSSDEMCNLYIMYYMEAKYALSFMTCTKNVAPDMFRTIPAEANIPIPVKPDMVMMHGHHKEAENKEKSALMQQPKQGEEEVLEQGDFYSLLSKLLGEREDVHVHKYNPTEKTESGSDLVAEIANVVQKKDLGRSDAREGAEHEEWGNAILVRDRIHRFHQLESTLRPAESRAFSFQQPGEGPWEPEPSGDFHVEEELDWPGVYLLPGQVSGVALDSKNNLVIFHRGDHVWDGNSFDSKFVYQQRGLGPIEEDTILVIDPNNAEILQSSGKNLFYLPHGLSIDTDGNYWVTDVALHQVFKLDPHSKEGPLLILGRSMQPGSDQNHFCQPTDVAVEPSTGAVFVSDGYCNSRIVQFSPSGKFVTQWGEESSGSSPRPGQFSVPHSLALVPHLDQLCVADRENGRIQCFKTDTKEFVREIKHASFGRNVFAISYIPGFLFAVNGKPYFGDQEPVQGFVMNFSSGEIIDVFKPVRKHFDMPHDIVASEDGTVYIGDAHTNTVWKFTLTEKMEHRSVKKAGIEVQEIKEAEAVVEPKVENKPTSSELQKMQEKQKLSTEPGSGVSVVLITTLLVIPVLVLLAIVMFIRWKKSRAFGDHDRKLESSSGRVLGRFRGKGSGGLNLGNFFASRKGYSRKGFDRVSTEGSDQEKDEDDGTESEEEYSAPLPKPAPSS
smiles,measurement,setting,value
O=C(O)CC=Cc1ccccc1 [4-phenyl-3-butenoic acid],PHM specific activity,[1],did inhibit both mammalian and C. reinhardtii PHM activities
same,PHM specific activity,[2],PHM specific activity was greatly reduced in both lysates in the presence of PBA

# — publication PMC5461114, “A bioactive peptide amidating enzyme is required for ciliogenesis” (eLife, 2017)
